Measured values as given in patent US7166611B2, “Pharmaceutical compositions having appetite suppressant activity” (priority 1997, dated 2007).

Legend:
Assay type in all cases: in vivo, rat
rats = test: Bioassay of chromatographic fractions for appetite suppressant activity; conditions: bioassay of fractions from silica gel chromatography
From the text: The extract may be prepared from plant material such as the stems and roots of said plants of the genus Trichocaulon or of the genus Hoodia. The genus Trichocaulon and the genus Hoodia include succulent plants growing in arid regions such as are found in Southern Africa. In one application of the invention, the active appetite suppressant extract is obtained from the species Trichocaulon piliferum. The species Trichocaulon officinale may also be used to provide an active appetite suppressant extract. In another application of the invention, the active appetite suppressant extract may be obtained from the species Hoodia currorii, Hoodia gordonii or Hoodia lugardii.
The partially purified active extract may be dissolved in methanol, and may be further fractionated by column chromatography, employing silica gel as an adsorption medium and a chloroform/30% methanol mixture as an eluent. A plurality of different fractions may be obtained, and each may be evaluated, by suitable bioassaying procedures, to determine the appetite suppressant activity thereof.
A fraction having appetite suppressant activity may preferably be further fractionated such as by column chromatography using silica gel as an adsorption medium and a 9:1 chloroform:methanol solvent, and the resultant sub-fractions bioassayed for their appetite suppressant activity. […]

[1] = Example 44 single oral dose study: bodyweight
Procedure: (§1) Sample 1 to 3 were each administered as a single oral dose to male Wistar rats. Two additional control groups received vehicle (distilled water or DMSO). Orally administered fenfluramine (7.5 mg/kg) was included as a reference standard.
(§2) Fifty-five male Wistar rats were used for the study.
(§3) Bodyweights, food consumption (food hopper weight) and water consumption (bottle weight) were recorded daily at the same time each day from the day of arrival until the termination of the study.
(§4) On Day 1, the rats received a single oral (gavage) dose according to the following table:
(§5) Groups 1–8 were dosed using a constant dose volume of 10 ml/kg and groups 9–12 were dosed using a dose volume of 1 ml/kg.
(§6) The post-dose food and water consumption measurements and bodyweights at each time-point for the P57-treated animals were compared with those for the relevant, similarly-treated vehicle control group using analysis of variance followed by Williams' test for comparisons with controls.
(§7) The data for the fenfluramine-treated animals was compared with that for the vehicle-treated control group using Student's t test.

male Wistar rats [2] = test: Example 44 single oral dose study: water consumption
Procedure: as §1, §2, §3, §4, §5
(§8) Food and water consumption were also measured at […] after dosing on Day 1.
as §6, §7

male Wistar rats [3] = test: Example 44 single oral dose study: food consumption
Procedure: as §1, §2, §3, §4, §5, §8, §6, §7

male Wistar rats [4] = test: Example 44 single oral dose study: liver histopathology; conditions: for histological examination of the liver: all doses tested, single oral dose, livers taken Day 8
From the text: Following the measurements of Day 8, the animals were killed by carbon dioxide asphyxiation, and the livers excised and placed in 10% buffered formalin, prior to histology.
Paraffin wax sections of each liver were taken at 4–5 μm and stained with haematoxylin and eosin. Additional sections were cut on a cryostat at 12 μm and stained for fat with Oil Red O (ORO).
Histological examination was restricted to the liver.

[5] = 2.5 mg/kg single oral dose on Day 1
[6] = 5.0 mg/kg single oral dose on Day 1
[7] = 2.5 and 5.0 mg/kg single oral dose
[8] = 7.5 mg/kg single oral dose on Day 1
[9] = pre-dose data, before treatment, table rows = later dose groups
[10] = Group 11, 7.5 mg/kg, 3 examined

## 3-0-[-β-D-thevetopyranosyl-(1→4)-β-D-cymaropyranosyl-(1→4)-β-D-cymaropyranosyl]-12β-0-tigloyloxy-14-hydroxy-14β-pregn-5-en-20-one [Compound (1)]
rats
  appetite suppressant activity: marked appetite suppressant activity
[1]; [5]
  Group mean bodyweight (g ± sd) on Day: 2: 191.2 ± 11.15 g
  Group mean bodyweight (g ± sd) on Day: 3: 200.0 ± 11.25 g
  Group mean bodyweight (g ± sd) on Day: 4: 209.6 ± 12.28 g
  Group mean bodyweight (g ± sd) on Day: 5: 219.6 ± 12.95 g
  Group mean bodyweight (g ± sd) on Day: 6: 229.4 ± 13.69 g
  Group mean bodyweight (g ± sd) on Day: 7: 238.4 ± 14.50 g
  Group mean bodyweight (g ± sd) on Day: 8: 247.0 ± 14.35 g
[1]; [6]
  Group mean bodyweight (g ± sd) on Day: 2: 192.0 ± 9.93 g
  Group mean bodyweight (g ± sd) on Day: 3: 192.4 ± 9.84 g
  Group mean bodyweight (g ± sd) on Day: 4: 201.0 ± 11.27 g
  Group mean bodyweight (g ± sd) on Day: 5: 209.4 ± 12.70 g
  Group mean bodyweight (g ± sd) on Day: 6: 219.8 ± 11.86 g
  Group mean bodyweight (g ± sd) on Day: 7: 228.2 ± 12.28 g
  Group mean bodyweight (g ± sd) on Day: 8: 236.0 ± 13.95 g
[1]; [7]
  effects on bodyweights: No statistically significant effects on bodyweights
Male Wistar rats [2]; 2.5 mg/kg single oral dose
  Group mean water consumption (g ± sd) between Days: 1–2: 32.2 ± 4.01 g
  Group mean water consumption (g ± sd) between Days: 2–3: 36.1 ± 12.42 g
  Group mean water consumption (g ± sd) between Days: 3–4: 38.3 ± 11.71 g
  Group mean water consumption (g ± sd) between Days: 4–5: 41.5 ± 16.60 g
  Group mean water consumption (g ± sd) between Days: 5–6: 34.7 ± 7.57 g
  Group mean water consumption (g ± sd) between Days: 6–7: 33.0 ± 4.20 g
  Group mean water consumption (g ± sd) between Days: 7–8: 35.3 ± 8.70 g
Male Wistar rats [2]; 5.0 mg/kg single oral dose
  Group mean water consumption (g ± sd) between Days: 1–2: 33.9 ± 2.40 g
  Group mean water consumption (g ± sd) between Days: 2–3: 31.5 ± 8.12 g
  Group mean water consumption (g ± sd) between Days: 3–4: 35.1 ± 3.82 g
  Group mean water consumption (g ± sd) between Days: 4–5: 37.7 ± 5.99 g
  Group mean water consumption (g ± sd) between Days: 5–6: 39.5 ± 7.78 g
  Group mean water consumption (g ± sd) between Days: 6–7: 37.4 ± 11.07 g
  Group mean water consumption (g ± sd) between Days: 7–8: 37.8 ± 6.42 g
Male Wistar rats [2]; [7]
  effects on water consumption: No statistically significant effects on water consumption
Male Wistar rats [3]; 2.5 mg/kg single oral dose
  Group mean food consumption (g ± sd) between Days: 1–2: 26.8 ± 3.33 g
  Group mean food consumption (g ± sd) between Days: 2–3: 29.1 ± 3.43 g
  Group mean food consumption (g ± sd) between Days: 3–4: 31.7 ± 3.08 g
  Group mean food consumption (g ± sd) between Days: 4–5: 34.0 ± 2.95 g
  Group mean food consumption (g ± sd) between Days: 5–6: 34.4 ± 4.32 g
  Group mean food consumption (g ± sd) between Days: 6–7: 33.1 ± 4.11 g
  Group mean food consumption (g ± sd) between Days: 7–8: 34.8 ± 3.71 g
Male Wistar rats [3]; 5.0 mg/kg single oral dose
  Group mean food consumption (g ± sd) between Days: 1–2: 22.1 ± 2.19 g
  Group mean food consumption (g ± sd) between Days: 2–3: 21.0 ± 3.07 g
  Group mean food consumption (g ± sd) between Days: 3–4: 27.6 ± 5.26 g
  Group mean food consumption (g ± sd) between Days: 4–5: 30.5 ± 3.33 g
  Group mean food consumption (g ± sd) between Days: 5–6: 33.0 ± 3.16 g
  Group mean food consumption (g ± sd) between Days: 6–7: 32.4 ± 3.25 g
  Group mean food consumption (g ± sd) between Days: 7–8: 33.0 ± 3.84 g
  duration of reduction in food consumption: 48 hours post-dose
  food consumption versus vehicle-treated animals: statistically significant reductions in food consumption
Male Wistar rats [4]; Group 9, 2.5 mg/kg, 5 examined
  Liver (ORO stain): Hepatocyte fat - centrilobular(Total): 2
  Liver (ORO stain): Hepatocyte fat - centrilobular, Minimal: 2
  Liver (ORO stain): No abnormalities detected: 3
  Liver: Hepatocyte necrosis - focal (Total): 1
  Liver: Hepatocyte necrosis - focal, Minimal: 1
  Liver: No abnormalities detected (incidence): 0
  Liver: Parenchymal inflammatory cell foci (Total): 0
  Liver: Parenchymal inflammatory cell foci, Minimal: 0
  Liver: Portal leucocytes (Total): 1
  Liver: Portal leucocytes, Minimal: 1
  Liver: Portal lymphoid infiltration (Total): 5
  Liver: Portal lymphoid infiltration, Minimal: 5
Male Wistar rats [4]; Group 10, 5 mg/kg, 5 examined
  Liver (ORO stain): Hepatocyte fat - centrilobular(Total): 2
  Liver (ORO stain): Hepatocyte fat - centrilobular, Minimal: 2
  Liver (ORO stain): No abnormalities detected: 3
  Liver: Hepatocyte necrosis - focal (Total): 0
  Liver: Hepatocyte necrosis - focal, Minimal: 0
  Liver: No abnormalities detected (incidence): 1
  Liver: Parenchymal inflammatory cell foci (Total): 0
  Liver: Parenchymal inflammatory cell foci, Minimal: 0
  Liver: Portal leucocytes (Total): 0
  Liver: Portal leucocytes, Minimal: 0
  Liver: Portal lymphoid infiltration (Total): 4
  Liver: Portal lymphoid infiltration, Minimal: 4
Male Wistar rats [4]
  histological examination of the liver: No treatment-related changes were detected

## CCNC(C)Cc1cccc(C(F)(F)F)c1 (centres unmarked) [Fenfluramine, reference compound]
[1]; 7.5 mg/kg single oral dose
  effects on bodyweight: No statistically significant effects
[1]; [8]
  Group mean bodyweight (g ± sd) on Day: 2: 190.3 ± 10.97 g
  Group mean bodyweight (g ± sd) on Day: 3: 197.7 ± 7.37 g
  Group mean bodyweight (g ± sd) on Day: 4: 207.7 ± 7.23 g
  Group mean bodyweight (g ± sd) on Day: 5: 217.7 ± 10.69 g
  Group mean bodyweight (g ± sd) on Day: 6: 224.3 ± 10.12 g
  Group mean bodyweight (g ± sd) on Day: 7: 234.3 ± 12.70 g
  Group mean bodyweight (g ± sd) on Day: 8: 243.3 ± 9.24 g
[1]; Day 1 before dosing
  Group mean bodyweight (g ± sd) on Day: Pre-dose (1): 190.3 ± 9.71 g
[1]; [9]
  Group mean bodyweight (g ± sd) on Day: −1: 182.8 ± 10.21 g
  Group mean bodyweight (g ± sd) on Day: −2: 170.0 ± 9.15 g
  Group mean bodyweight (g ± sd) on Day: −3: 160.0 ± 9.82 g
  Group mean bodyweight (g ± sd) on Day: −4: 152.7 ± 9.09 g
  Group mean bodyweight (g ± sd) on Day: −5: 133.2 ± 9.21 g
Male Wistar rats [2]; 7.5 mg/kg single oral dose
  Group mean water consumption (g ± sd) between Days: 1–2: 34.1 ± 3.60 g
  Group mean water consumption (g ± sd) between Days: 2–3: 37.2 ± 1.48 g
  Group mean water consumption (g ± sd) between Days: 3–4: 36.7 ± 3.92 g
  Group mean water consumption (g ± sd) between Days: 4–5: 33.8 ± 2.89 g
  Group mean water consumption (g ± sd) between Days: 5–6: 33.7 ± 5.43 g
  Group mean water consumption (g ± sd) between Days: 6–7: 32.1 ± 1.93 g
  Group mean water consumption (g ± sd) between Days: 7–8: 33.6 ± 2.50 g
  effects on water consumption: No statistically significant effects
Male Wistar rats [2]; [9]
  Group mean water consumption (g ± sd) between Days: −2–−1: 31.6 ± 2.80 g
  Group mean water consumption (g ± sd) between Days: −3–−2: 30.9 ± 2.12 g
  Group mean water consumption (g ± sd) between Days: −4–−3: 34.7 ± 3.73 g
  Group mean water consumption (g ± sd) between Days: −5–−4: 35.5 ± 7.49 g
  Group mean water consumption (g ± sd) between Days: −6–−5: 47.0 ± 5.3 g
Male Wistar rats [3]; 7.5 mg/kg single oral dose
  Group mean food consumption (g ± sd) between Days: 1–2: 22.4 ± 3.19 g
  Group mean food consumption (g ± sd) between Days: 2–3: 31.9 ± 0.84 g
  Group mean food consumption (g ± sd) between Days: 3–4: 32.7 ± 2.50 g
  Group mean food consumption (g ± sd) between Days: 4–5: 33.0 ± 2.55 g
  Group mean food consumption (g ± sd) between Days: 5–6: 30.4 ± 0.23 g
  Group mean food consumption (g ± sd) between Days: 6–7: 32.7 ± 1.90 g
  Group mean food consumption (g ± sd) between Days: 7–8: 32.4 ± 1.60 g
  food consumption at 6 and 24 hours post-dose versus vehicle-treated control group: statistically significant reductions in food consumption
Male Wistar rats [3]; [9]
  Group mean food consumption (g ± sd) between Days: −2–−1: 29.7 ± 2.84 g
  Group mean food consumption (g ± sd) between Days: −3–−2: 30.8 ± 0.54 g
  Group mean food consumption (g ± sd) between Days: −4–−3: 27.0 ± 1.53 g
  Group mean food consumption (g ± sd) between Days: −5–−4: 25.3 ± 4.03 g
  Group mean food consumption (g ± sd) between Days: −6–−5: 29.1 ± 0.66 g
Male Wistar rats [4]; [10]
  Liver (ORO stain): Hepatocyte fat - centrilobular(Total): 1
  Liver (ORO stain): Hepatocyte fat - centrilobular, Minimal: 1
  Liver (ORO stain): No abnormalities detected: 2
  Liver: Hepatocyte necrosis - focal (Total): 0
  Liver: Hepatocyte necrosis - focal, Minimal: 0
  Liver: No abnormalities detected (incidence): 0
  Liver: Parenchymal inflammatory cell foci (Total): 0
  Liver: Parenchymal inflammatory cell foci, Minimal: 0
  Liver: Portal leucocytes (Total): 0
  Liver: Portal leucocytes, Minimal: 0
  Liver: Portal lymphoid infiltration (Total): 3
  Liver: Portal lymphoid infiltration, Minimal: 3
Male Wistar rats [4]
  histological examination of the liver: No treatment-related changes were detected
